Earlier results as cited in patent US20100239682A1, “COLONIC DELIVERY OF ANTIMICROBIAL AGENTS” (priority 2007, published 2010).

Key:
[1] = human volunteers, high doses
[2] = test system: Enterobacteriaceae; conditions: human volunteers, oral, different dosages

Substance: colistin [Colimycin]
- tolerance at the gastric level [1]: very poorly tolerated
- effectiveness at achieving selective decontamination [2]: only high dosages of Colimycin were effective
